Measured values taken from PubChem BioAssay (NCI).
Where “and” joins values, the source holds several entries; their conditions need not be identical. Equal entries are not always repeated.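 Cells were grown in 96-well plates and exposed to each compound for 48 hours at five concentrations; endpoints were interpolated linearly between bracketing concentrations, or set to the highest concentration if not reached. GI50 marks 50% less growth. TGI: total growth inhibition.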

Legend:
Assay in all cases: NCI tumour cell line growth inhibition, 48 h
DLD-1 colon = system: DLD-1 colon
M19-MEL melanoma = system: M19-MEL melanoma
HOP-18 NSCLC = system: HOP-18 NSCLC
SN12K1 renal = system: SN12K1 renal
P388/ADR leukemia = system: P388/ADR leukemia
DMS 273 small cell lung = system: DMS 273 small cell lung
DMS 114 small cell lung = system: DMS 114 small cell lung
KM20L2 colon = system: KM20L2 colon
P388 leukemia = system: P388 leukemia
XF 498 CNS = system: XF 498 CNS
LXFL 529 NSCLC = system: LXFL 529 NSCLC
RXF-631 renal = system: RXF-631 renal

Compound | GI50 (DLD-1 colon) | TGI (DLD-1 colon) | TGI (M19-MEL melanoma) | GI50 (HOP-18 NSCLC) | TGI (HOP-18 NSCLC) | GI50 (SN12K1 renal) | TGI (SN12K1 renal) | GI50 (P388/ADR leukemia) | TGI (P388/ADR leukemia) | GI50 (DMS 273 small cell lung) | TGI (DMS 273 small cell lung) | TGI (DMS 114 small cell lung) | TGI (KM20L2 colon) | TGI (P388 leukemia) | TGI (XF 498 CNS) | TGI (LXFL 529 NSCLC) | TGI (RXF-631 renal)
CCC1(OC(=O)CN)C(=O)OCc2c1cc1n(c2=O)Cc2cc3cc4c(cc3nc2-1)OCO4 (stereo not given) | 0.278 µM and 0.203 µM | 40.5 µM and > 100 µM | 1.04 µM and 0.416 µM | 0.166 µM and 0.0534 µM | 2.63 µM and 2.24 µM | < 0.01 µM | 0.225 µM and 1.04 µM | < 0.01 µM | < 0.01 µM | < 0.01 µM | 0.0656 µM and 0.358 µM |  |  |  |  |  | 
C=CCCCCn1c2ccccc2c2c(C)c3cnccc3c(C)c21 |  | 29.9 µM |  |  | 35.6 µM |  | 44.3 µM |  | 15.8 µM |  | 20.5 µM | 16.8 µM | 31.9 µM | 10.2 µM | 4.36 µM |  | 
C[C@]12CCC(=O)C=C1CC[C@@H]1[C@@H]2[C@@H](O)C[C@@]2(C)[C@H]1CC[C@]2(O)C(=O)COC(=O)CCC1CCCC1 |  | > 100 µM | > 100 µM |  |  |  |  |  |  |  | > 100 µM | > 100 µM | > 100 µM |  | > 100 µM | > 100 µM | 
Cn1c(=O)n(CC2CS2)c2ccccc21 (stereo not given) |  | > 100 µM | > 100 µM |  |  |  |  |  |  |  | > 100 µM | > 100 µM | > 100 µM |  | > 100 µM | > 100 µM | 
CCN(CC)/[N+]([O-])=N/O |  |  | > 100 µM |  |  |  |  |  |  |  | > 100 µM |  | > 100 µM |  | > 100 µM | > 100 µM | > 100 µM
